The results in this text go back to ChEMBL document CHEMBL5154747, “Discovery of new carbonic anhydrase IX inhibitors as anticancer agents by toning the hydrophobic and hydrophilic rims of the active site to encounter the dual-tail approach” (Eur J Med Chem, 2022).

In data set [1] the test system is SK-MEL-5. The data set can be described thus: Induction of apoptosis in human SK-MEL-5 cells assessed as caspase 3 activation incubated for 24 hrs by Western blotting analysis. The data set is classed as functional, cell-based.
The subject of data set [2] is SK-MEL-5. The data set can be described thus: Induction of ROS generation in human SK-MEL-5 cells assessed as increase in intracellular ROS level incubated for 1 hrs by H2DCFDA probe based fluorometry analysis relative to control. The data set is classed as functional.
Data set [3] concerns SK-MEL-5. Briefly: Induction of apoptosis in human SK-MEL-5 cells assessed as necrotic cells at 10 uM incubated for 24 hrs by Annexin-V/FITC and PI staining based flow cytometry analysis (reference value: 1.56 %). The data set is classed as functional.
Data set [4] has as its system SK-MEL-5. Briefly: Induction of cell cycle arrest in human SK-MEL-5 cells assessed as cell aggregates at 10 uM incubated for 24 hrs by FACSCalibur flow cytometry analysis (reference value: 1.79%). In kind it is functional.
For data set [5], the system named is SK-MEL-5. Briefly: Induction of cell cycle arrest in human SK-MEL-5 cells assessed as accumulation of diploid cells at S phase at 10 uM incubated for 24 hrs by FACSCalibur flow cytometry analysis (reference value: 17.55%). The data set is classed as functional.
For data set [6], the system named is SK-MEL-5. The data set can be described thus: Cytotoxicity against human SK-MEL-5 cells assessed as inhibition of cell viability incubated for 72 hrs under hypoxia condition by MTT assay. The data set is classed as functional, cell-based. The following applies: SK-MEL-5, 72 h.
For another data set, the system named is RXF 393. The data set can be described thus: Cytotoxicity against human RXF 393 cells assessed as inhibition of cell viability incubated for 72 hrs under hypoxia condition by MTT assay. In kind it is functional, cell-based. The following applies: RXF 393, 72 h.
Data set [7] deals with SK-MEL-5. The data set can be described thus: Induction of apoptosis in human SK-MEL-5 cells assessed as late apoptotic cells at 10 uM incubated for 24 hrs by Annexin-V/FITC and PI staining based flow cytometry analysis (reference value: 0.26 %). In kind it is functional.
Data set [8] can be described thus: Cytotoxicity against human HEK293 cells assessed as inhibition of cell viability by MTT assay.
In data set [9] the test system is SK-MEL-5. Briefly: Induction of cell cycle arrest in human SK-MEL-5 cells assessed as cell debris at 10 uM incubated for 24 hrs by FACSCalibur flow cytometry analysis (reference value: 1.38%). In kind it is functional.
Data set [10] deals with SK-MEL-5. Briefly: Induction of cell cycle arrest in human SK-MEL-5 cells assessed as accumulation of diploid cells at G1 phase at 10 uM incubated for 24 hrs by FACSCalibur flow cytometry analysis (reference value: 69.23%). In kind it is functional.
In data set [11] the test system is SK-MEL-5. The data set can be described thus: Induction of cell cycle arrest in human SK-MEL-5 cells assessed as accumulation at pre G1 phase at 10 uM incubated for 24 hrs by FACSCalibur flow cytometry analysis (reference value: 2.43%). In kind it is functional.
For the next data set, the system named is HCC 2998. The data set can be described thus: Cytotoxicity against human HCC 2998 cells assessed as inhibition of cell viability incubated for 72 hrs under hypoxia condition by MTT assay. The data set is classed as functional, cell-based. The following applies: HCC 2998, 72 h.
The test system of data set [12] is SK-MEL-5. The data set can be described thus: Induction of cell cycle arrest in human SK-MEL-5 cells assessed as accumulation of diploid cells at G2/M phase at 10 uM incubated for 24 hrs by FACSCalibur flow cytometry analysis (reference value: 13.22%). In kind it is functional.
Data set [13] relates to SK-MEL-5. Briefly: Induction of apoptosis in human SK-MEL-5 cells assessed as early apoptotic cells at 10 uM incubated for 24 hrs by Annexin-V/FITC and PI staining based flow cytometry analysis (reference value: 0.61 %). In kind it is functional.
The test system of data set [14] is SK-MEL-5. The data set can be described thus: Induction of apoptosis in human SK-MEL-5 cells assessed as caspase 9 activation incubated for 24 hrs by Western blotting analysis. The data set is classed as functional, cell-based.

Active and inactive are the calls of the source. No cut-off for these calls is given here.

In the case of `NS(=O)(=O)c1ccc(Nc2nc(N/N=C/c3ccccn3)nc(Nc3ccccc3)n2)cc1`, the result in the data set on SK-MEL-5 [1] and with SK-MEL-5 [14] was Active. The Activity in the data set on SK-MEL-5 [2] is listed as 23%; in the data set with SK-MEL-5 [3], 7.99%; in the data set on SK-MEL-5 [4], 1.85%; in the data set on SK-MEL-5 [5] it was 32.41%; with SK-MEL-5 [7] it was 24.97%; in the data set with SK-MEL-5 [9], 1.42%. Also, the Activity in the data set on SK-MEL-5 [10] is given as 58.78%; in the data set on SK-MEL-5 [11] it was 37.24%; with SK-MEL-5 [12], 8.81%; in the data set with SK-MEL-5 [13] it was 4.28%. Also, the IC50 was found to be 8.33 µM in the data set with SK-MEL-5 [6], 3.11 µM with RXF 393, 45.6 µM in data set [8] and 1.93 µM in the data set with HCC 2998.

On to `CN(C)c1ccc(/C=N/Nc2nc(Nc3ccccc3)nc(Nc3ccc(S(N)(=O)=O)cc3)n2)cc1`, for which the concentration for half-maximal inhibition (IC50) with RXF 393 was found to be 7.21 µM; in data set [8] it was 39.8 µM.
